Our source for the logP values is the SangsterLogP compilation.

As a reminder, the logP is a log measure of how a compound divides between an organic and an aqueous phase. Read a high logP as a more lipophilic compound.

In turn, `O=C1COCC(=O)N(Cc2ccccc2)CCN(c2ccccc2)CCN(Cc2ccccc2)C(=O)COCC(=O)NCCN1` returned a logP of 2.2. The value for `O=C1COCC(=O)N(Cc2ccccc2)CCN(Cc2ccccc2)C(=O)COCC(=O)NCCN1` was 1.9; that for `O=C(COCC(=O)N(C1CCCCC1)C1CCCCC1)N(C1CCCCC1)C1CCCCC1` was 6.7; that for `O=C1COCC(=O)N(Cc2ccccc2)CCN(Cc2ccccc2)C(=O)COCC(=O)N(Cc2ccccc2)CCN1Cc1ccccc1` was 3.8. `O=C1COCC(=O)N(Cc2ccccc2)CCN(Cc2ccccc2)C(=O)COCC(=O)N(Cc2ccccc2)CCOCCN1Cc1ccccc1`: the logP was 3.8.

With `O=C1COCCOCC(=O)N(Cc2ccccc2)CCN(Cc2ccccc2)C(=O)COCCOCC(=O)N(Cc2ccccc2)CCN1Cc1ccccc1`, the logP amounted to 3.8. For `O=C1COCC(=O)N(Cc2ccccc2)CCN(c2ccccc2)CCN(Cc2ccccc2)C(=O)COCC(=O)N(Cc2ccccc2)CCN1Cc1ccccc1` the value was 5.2; for `O=C1COCC(=O)N(Cc2ccccc2)CCOCCN(Cc2ccccc2)C(=O)COCC(=O)N(Cc2ccccc2)CCOCCN1Cc1ccccc1`, 3.8. Consider `CCN(Cc1ccccc1)C(=O)COCC(=O)N(CC)Cc1ccccc1`, for which the logP came to 2.5.

`O=C1CCCCCCC(=O)N(Cc2ccccc2)CCN(Cc2ccccc2)C(=O)CCCCCCC(=O)N(Cc2ccccc2)CCN1Cc1ccccc1`: the logP is 5.1. The compound `O=C1COCC(=O)N(Cc2ccccc2)CCN(c2ccc(F)cc2)CCN(Cc2ccccc2)C(=O)COCC(=O)N(Cc2ccccc2)CCN1Cc1ccccc1` came in with a logP of 5.2. For `CCOC(=O)CCCCCCCCCCCN(C)C(=O)CO[C@@H](C)[C@H](C)OCC(=O)N(C)CCCCCCCCCCCC(=O)OCC` the value was 6.2.
